Test results published in patent US20100267792A1, “Topical Compositions Containing Desthiobiotin and its Derivatives and a Method of Treating Skin” (AVON PRODUCTS, INC., priority 2007, published 2010).

Assays:
[1] = test system: LOXL1 regulatory elements (promoter region of the LOXL1 gene); assay: LOXL1 promoter luciferase-reporter assay; format: cell-based; conditions: 0.001% DL-Desthiobiotin, 24 h, human fibrosarcoma line HTI080, LOXL1/pGL3 vector, triplicate tests, p<0.05 compared to vehicle control
Text: Vector construction, transfection and expression: The promoter region of the LOXL1 gene was isolated and cloned into the pGL3 Luciferase reporter plasmid (Promega) by standard methods known in the art and according to manufacturer's instructions. The LOXL1/pGL3 vector and the control vector pRL-NULL (Promega), containing no regulatory elements, were contransfected into the human fibrosarcoma line HTI080 using LipofectAMINE™ LTX Reagent (Invitrogen) according to manufacturer's directions. Transfected cells were allowed to recover for 24 h. The culture medium was then replaced with fresh medium containing various concentrations of DL-Desthiobiotin, and the transfected cells cultured for an additional 24 h. The cultures were subsequently washed with PBS and exposed to 100 microlit cell lysis buffer/25 cm^2 culture area and gently shaken at room temperature for 30 min. The culture flasks containing the cell lysate were then immediately placed at −80 °C. Determination of reporter activity: The activity of the reporter gene, firefly luciferase, was determined according to the manufacturer's instructions (Dual-Luciferase® Reporter Assay System, Promega). Briefly, the activity of the reporter gene is determined relative to that of a control vector encoding a second luciferase gene, that from Renilla reniformis. […]

Fibrillin-1 mRNA = assay: Fibrillin-1 gene expression by quantitative RT-PCR in fibroblasts; format: cell-based; conditions: 0.001% DL-Desthiobiotin, 48 h, normal human dermal fibroblasts, QPCR, compared to solvent control, p<0.05
Experimental: Cell Treatment: Normal human dermal fibroblasts were plated at 10^6 cells/100 mm tissue culture plates in 10 mls of standard growth medium and incubated at 37° C. and 10% CO2. Approximately 24 hours later, cells were dosed with test actives and solvent controls diluted in fresh growth medium and incubated for 48 hours at 37° C. Following 48-hour incubation, cell medium was removed, and 1 ml of TRIzol® reagent was added to lyse the cells in each plate. Cells from each plate were scraped, passed several times through a pipette, and collected into 1.5 ml centrifuge tubes. The cell lysates were incubated for 5 minutes at 15 to 30° C. to permit the complete dissociation of nucleoprotein complexes, and then stored at −80° C. for RNA isolation. RNA Isolation and RT PCR: RNA was isolated using standard procedures and was dissolved in RNase-free water and stored at −80° C. The concentration of total RNA was determined by using Agilent 2100 Bioanalyzer. […] Reverse Transcriptase (RT) reactions were conducted following the manufacturer's instructions provided by Applied Biosystems, Calif. After the RT step, the reactions were stored at −20° C. for QPCR analysis. QPCR was conducted in a total volume of 20 μl. Applied Biosystems (AB) Universal PCR master mix was used. […]

CC1NC(=O)NC1CCCCCC(=O)O (racemic) [DL-Desthiobiotin]
increase in expression of the reporter gene [1]: 90%
increase in Fibrillin-1 gene expression (Fibrillin-1 mRNA): 47.55%
